Measurements from patent US20250108023A1, “Products for Masking Bitterness” (The Third People's Hospital of Henan Province, priority 2023, published 2025).
Like-named read-outs stand apart in the source and are kept apart here.

What was measured:
[1] = Oral spray bitterness masking taste test by volunteers with Coptis chinensis standard bitter solution; format: in vivo, healthy volunteers; set-up: key to bitterness value after drug: bitterness value 0.5–5.5; 1 = none, 5 = unbearable; settings: for inhibition in vivo at 0.2 %: Homo sapiens, read-out: Reduction range; for bitterness value after drug: initial bitterness 4.0, 16 cases
Procedure: Purpose of the experiment: it is to screen out compounds that take effect within 5 seconds, last for 30-120 seconds, and it is expected, by using such kind of compounds, the taste of the drug cannot be felt during the duration (30-120 seconds) when taking the drug.
Principle of the experiment: simulate the process of taking medicine and using the taste masking agents, first spray about 0.5 ml of oral spray on the throat (3 times), and after it takes effect quickly, taste 10 ml of bitter standard solution to screen drugs that can be used in advance and can mask the bitter taste.
• 1: Volunteer screening. The research team strictly screened the recruited volunteers and finally selected healthy volunteers as subjects. They signed informed consent forms before the experiment; • 2: Standard bitterness sample preparation. The bitterness of the samples was divided into five levels, and each level was assigned a certain bitterness value range; • 3: The sensory standard was corrected by the oral taste evaluation method, that is, the sensory standard was corrected by comparing the taste evaluation of the volunteers with the established bitterness value of the reference sample group. Specific steps: when the volunteers are doing the oral tasting test, the reference solutions of various concentrations are placed in the tasting cups, and the volunteers hold one of the solutions in their mouths, time it, and rinse their mouths by using the solution so that the bitter taste perception area at the root and sides of the tongue can fully feel the bitter taste of the drug. […] Then dilute all the selected taste masking drugs, prepare the solution, take 10 ml and put it into the spray bottle, spray it into the mouth 3 times, stay for 5 seconds, drink 10 ml of standard bitterness solution, feel and record the bitterness value, keep the standard bitterness solution in the mouth until the bitterness rises, and record the retention time. • 5: Quality control. […] Since the experimental objects are biological samples and there are individual differences between different subjects, there may be individual outliers in the experimental test data. The Grubbs test method was used to exclude outliers in the data, and then the experimental data were plotted in tables and curves for data analysis.
It is necessary to process the experimental data. Specifically, the Grubbs test method was used to perform a circular test and elimination of outliers on the data, and a bilateral test was used to eliminate outliers in the oral test. Considering the characteristics of biological samples, the detection level was selected as 0.1 and the elimination level was selected as 0.05 in this experiment.
The experimental medicinal material processing method mentioned in the above technical scheme is as follows: Preparation of bitter standard solution, use 10 g of Coptis chinensis powder, add 100 ml of pure water above 90 degrees, stir, let stand for 20 minutes, take the supernatant for use, determine the standard bitterness of 4.0 degrees by oral tasting, dilute 5 times, determine the standard bitterness of 2.0 degrees, dilute 2.0 degrees again 5 times, determine the standard bitterness of 0.5 degrees. Compare with the bitterness scoring table, (level 1 means “no bitterness or almost no bitterness”, the bitterness value is 0.5˜1.5; level 2 means “slightly bitter”, the bitterness value is 1.5˜2.5; level 3 means “bitter but acceptable”, the bitterness value is 2.5˜3.5; level 4 means “very bitter, but still tolerable”, the bitterness value is 3.5˜4.5; level 5 means “unbearable bitterness”, the bitterness value is 4.5˜5.5). Adjust the judgment and cognition of bitterness.
The standard bitterness solution used in this experiment to verify the experimental effect is a 4.0 degree bitterness solution of Coptis chinensis prepared according to the above method.

[2] = target: T1, sodium ion channel of Trpm5 bitter receptor (Mus musculus, UniProt Q9JJH7); test: Immunofluorescence experiment of sodium ion channels in mouse tongue cells stimulated with bitter agent; format: cell-based, mice; settings: for blocking effect on the sodium ion channel (result analysis in words): judged from change of sodium ion fluorescence after bitter drug
T1 construct: Put the removed tongue in a 2 ml EP tube, add 1-1.5 ml of 0.25% trypsin solution; from tissue; host or cells: cells dissociated with trypsin from mouse tongue
T1 sequence (Q9JJH7 1-1158): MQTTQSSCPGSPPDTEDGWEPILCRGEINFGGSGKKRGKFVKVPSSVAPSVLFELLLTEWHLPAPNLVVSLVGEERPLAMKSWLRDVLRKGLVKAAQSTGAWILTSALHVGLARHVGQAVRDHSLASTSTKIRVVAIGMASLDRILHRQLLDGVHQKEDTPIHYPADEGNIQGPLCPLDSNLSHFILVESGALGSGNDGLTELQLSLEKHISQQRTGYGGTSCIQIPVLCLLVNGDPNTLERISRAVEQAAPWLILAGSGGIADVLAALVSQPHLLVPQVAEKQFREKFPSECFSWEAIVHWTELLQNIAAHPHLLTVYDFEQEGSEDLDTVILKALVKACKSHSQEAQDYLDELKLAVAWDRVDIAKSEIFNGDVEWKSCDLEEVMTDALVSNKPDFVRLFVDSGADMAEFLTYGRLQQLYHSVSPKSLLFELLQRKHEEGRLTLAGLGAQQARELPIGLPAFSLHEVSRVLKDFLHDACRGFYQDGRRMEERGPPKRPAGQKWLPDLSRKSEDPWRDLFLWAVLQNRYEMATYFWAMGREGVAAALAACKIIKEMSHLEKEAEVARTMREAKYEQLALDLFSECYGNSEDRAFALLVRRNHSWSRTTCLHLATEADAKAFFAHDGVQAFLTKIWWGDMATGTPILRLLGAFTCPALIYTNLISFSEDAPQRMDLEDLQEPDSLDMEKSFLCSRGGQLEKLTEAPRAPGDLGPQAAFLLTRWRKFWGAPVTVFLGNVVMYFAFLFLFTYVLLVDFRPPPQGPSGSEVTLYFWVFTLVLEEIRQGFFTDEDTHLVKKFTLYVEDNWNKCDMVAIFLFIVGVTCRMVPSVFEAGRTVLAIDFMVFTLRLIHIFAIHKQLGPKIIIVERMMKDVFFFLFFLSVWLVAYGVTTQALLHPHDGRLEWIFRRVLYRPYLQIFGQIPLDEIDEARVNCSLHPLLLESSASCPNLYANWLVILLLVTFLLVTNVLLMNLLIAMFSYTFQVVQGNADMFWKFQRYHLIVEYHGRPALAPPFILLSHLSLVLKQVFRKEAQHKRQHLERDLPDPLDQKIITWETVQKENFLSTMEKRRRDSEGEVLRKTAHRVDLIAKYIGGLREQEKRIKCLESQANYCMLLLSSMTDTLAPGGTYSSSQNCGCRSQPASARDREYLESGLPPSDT
Procedure: The mouse was killed by dislocation, and the tongue was removed (minimizing tongue bleeding), disinfected with alcohol for 2 minutes (adding sodium citrate for anticoagulation), and washed with D-Hanks solution or rinsed with 10 ml of saline solution drawn by a syringe.
Take out the centrifuge tube from the constant temperature incubator, shake for 2 minutes, blow the undigested tongue several times with the gun tip, take out the tongue, cover it with the EP tube cap, put it in a centrifuge, centrifuge at 3000 rpm for 3 minutes, discard the supernatant, add cell culture medium (containing 10% inactivated serum), blow and disperse the cells, and place it in a 37° C. constant temperature incubator for 30 min to allow the cells to recover.
(1) Take out the prepared ENG-2 AM storage solution and warm it to room temperature for use, keeping it away from light. The concentration of the pre-prepared stock solution is 2 mM and it is stored at −18° C. for future use.
(2) Dilute the ENG-2 AM+DMSO stock solution to a […] working solution using serum-free culture medium.
(3) Load the probe in a serum-free culture medium containing an appropriate concentration of AM probe.
Take out the cells from the incubator, centrifuge, and discard the culture medium. Wash the cells once with D-Hanks solution, centrifuge, and discard the culture medium. Add 1 ml of culture medium again, then add 300 ul of sodium ion probe dilution solution, blow and disperse the cells, and incubate the cells at room temperature or 37° C. for 1 hour.
At the end of incubation, centrifuge at 100 rpm for 2 minutes, discard the supernatant, add 500 ul of cell culture medium without AM probe, blow and disperse the cells, and incubate for 20-60 min to ensure that the cells completely deesterify the AM group.
(4) Take 10 ul of incubation solution and drop it into the center of the cell counting plate, cover it with a slide, and observe it under a fluorescence microscope.
(5) Use a low-power microscope to find the cells, open the fluorescence path, detect the fluorescence signal with a fluorescence microscope, change to a high-power microscope, find the appropriate observation cells, observe and take pictures to record the initial signal.
(2) Experimental drugs: Add 5 ul of the tested drug to one side of the cover glass on the cell counting plate, use absorbent paper to absorb water on the opposite side, let the solution soak the cells, and then use a fluorescence microscope to observe and take 3-5 photos, one every 1-2 minutes; then add 5 ul of the standard bitter drug to one side of the cover glass on the cell counting plate, use absorbent paper to absorb water on the opposite side, let the solution soak the cells, and then use a fluorescence microscope to observe and take 3-5 photos, one every 1-2 minutes.
(5) Data analysis: Use Image J-Fiji software to analyze the images, compare the average values of the fluorescence pixels, remove the base number and compare them in the table, draw FIGS. 4-6, and use SPSS18.0 to perform chi-square tests to compare the differences between the data groups.

[3] = 0.2% solution in 60% ethanol as oral spray, relative to original bitterness 4.0
[4] = Bitterant 60 s (2% metronidazole solution)
[5] = Bitterant 120 s (2% metronidazole solution)
[6] = Bitterant 180 s (2% metronidazole solution)
[7] = Initial (before addition of drug), sodium ion dye ENG-2 AM
[8] = Bitterant 240 s (2% metronidazole solution)

## CCOC(=O)C1=C(COCCN)NC(C)=C(C(=O)OC)C1c1ccccc1Cl (stereo not shown) [Amlodipine, reference compound]
[1]; [3]
  inhibition in vivo at 0.2 %: 0%

## CC1(C)C2CCC1(C)C(O)C2 (stereo not shown) [Borneolum, 2-borneol]
[1]; 0.2% solution in 60% ethanol as oral spray, retention time until bitterness rises
  Duration >: > 10 s
[1]; [3]
  inhibition in vivo at 0.2 %: 52.5%
[1]; concentration 0.001% in 60% ethanol
  bitterness value after drug: 4
[1]; concentration 0.005% in 60% ethanol
  bitterness value after drug: 3.4
[1]; concentration 0.02% in 60% ethanol
  bitterness value after drug: 2.6
[1]; concentration 0.10% in 60% ethanol
  bitterness value after drug: 1.9
[1]; concentration 0.50% in 60% ethanol
  bitterness value after drug: 2.2

## Cc1ccc(C(C)C)cc1O [Carvacrol]
[1]; po
  inhibition in vivo at 0.2 %: 0%

## NCCCC(=O)O [GABA, 4-aminobutyric acid]
[2]; Addition of drugs
  average value of fluorescence brightness: 27.367
  average value of fluorescence brightness, base number removed: 0.082
[2]; [4]
  average value of fluorescence brightness: 27.287
  average value of fluorescence brightness, base number removed: 0.002
[2]; [5]
  average value of fluorescence brightness: 27.21
  average value of fluorescence brightness, base number removed: −0.075
[2]; [6]
  average value of fluorescence brightness: 27.127
  average value of fluorescence brightness, base number removed: −0.158
[2]; Initial
  average value of fluorescence brightness, base number removed: 0
[2]; [7]
  average value of fluorescence brightness: 27.285
[2]
  blocking effect on the sodium ion channel (result analysis in words): have poor effects and do not have bitterness masking effect

## CC1CCC(C(C)C)C(O)C1 (stereo not shown) [Menthol, 2-isopropyl-5-methylcyclohexanol]
[2]; Addition of drugs
  average value of fluorescence brightness: 22.118
  average value of fluorescence brightness, base number removed: −0.435
[2]; [4]
  average value of fluorescence brightness: 22.04
  average value of fluorescence brightness, base number removed: −0.513
[2]; [5]
  average value of fluorescence brightness: 21.924
  average value of fluorescence brightness, base number removed: −0.629
[2]; [6]
  average value of fluorescence brightness: 21.907
  average value of fluorescence brightness, base number removed: −0.646
[2]; [8]
  average value of fluorescence brightness: 20.562
  average value of fluorescence brightness, base number removed: −1.991
[2]; Initial
  average value of fluorescence brightness, base number removed: 0
[2]; [7]
  average value of fluorescence brightness: 22.553
[2]
  blocking effect on the sodium ion channel (result analysis in words): can block the sodium ion channel of Trpm5 bitter receptor

## CC1CCC(C(C)C)C(OC(=O)C(C)O)C1 (stereo not shown) [Menthyl lactate, 2-hydroxypropionic acid-5-methyl-2-(1-methylethyl)cyclohexyl ester]
[2]; Addition of drugs
  average value of fluorescence brightness: 28.425
  average value of fluorescence brightness, base number removed: −0.113
[2]; [4]
  average value of fluorescence brightness: 28.141
  average value of fluorescence brightness, base number removed: −0.397
[2]; [5]
  average value of fluorescence brightness: 27.831
  average value of fluorescence brightness, base number removed: −0.707
[2]; [6]
  average value of fluorescence brightness: 28.191
  average value of fluorescence brightness, base number removed: −0.347
[2]; Initial
  average value of fluorescence brightness, base number removed: 0
[2]; [7]
  average value of fluorescence brightness: 28.538
[2]
  blocking effect on the sodium ion channel (result analysis in words): can block the sodium ion channel of Trpm5 bitter receptor

## Hydroxyvanillic acid
[2]; Addition of drugs
  average value of fluorescence brightness: 28.082
  average value of fluorescence brightness, base number removed: 0.093
[2]; [4]
  average value of fluorescence brightness: 27.496
  average value of fluorescence brightness, base number removed: −0.493
[2]; [5]
  average value of fluorescence brightness: 27.697
  average value of fluorescence brightness, base number removed: −0.292
[2]; [6]
  average value of fluorescence brightness: 27.919
  average value of fluorescence brightness, base number removed: −0.07
[2]; Initial
  average value of fluorescence brightness, base number removed: 0
[2]; [7]
  average value of fluorescence brightness: 27.989
[2]
  blocking effect on the sodium ion channel (result analysis in words): have poor effects and do not have bitterness masking effect
